The record followed here is patent US20180179198A1, “TRICYCLIC MODULATORS OF TNF SIGNALING” (AbbVie Inc., priority 2015, published 2018).

The experiment deals with TNFα trimer (Homo sapiens, UniProt P01375). As to the kind of experiment: TNFα FP Competitive Binding Assay. As to conditions: fluorescence polarization competition; 20 nM TNFα trimer, 1 nM OregonGreen488 probe; read-out: TNF IC50 (TNFα FP binding assay IC50). In outline: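 Fluorescence polarization displacement: 20 nM TNFα trimer (60 nM protein) with 1 nM fluorescein-labelled bis-isoquinoline probe in HEPES/NaCl/EDTA/Triton X-100 buffer. 12-point 1:3 compound series, top final 338 μM (3.4% DMSO) or 100 μM (2.0% DMSO); 18-24 h at 37 °C, then 1 h rt before background-subtracted mP read; variable-slope curve fit.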
On the technique in general: In fluorescence polarisation assays a small probe gives low polarisation when free and higher when bound to something large.

Each structure is given as a SMILES string. Where a name gives a salt, the structure may show the parent alone. A value given as a limit tells only on which side of the number the result lay.

TNFα trimer, sequence (P01375 77-233 limits assumed): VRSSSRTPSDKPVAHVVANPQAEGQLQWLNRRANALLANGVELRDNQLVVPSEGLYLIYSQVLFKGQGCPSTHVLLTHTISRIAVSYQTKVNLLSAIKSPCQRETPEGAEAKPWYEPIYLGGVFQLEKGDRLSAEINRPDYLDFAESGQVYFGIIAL

What is called IC50 is the point on the concentration scale where inhibition reaches its midpoint. Take `c1ccc([C@@H]2COCc3nc4ccc(-c5cnc(N6CCOCC6)nc5)cc4n32)cc1` [Example 20, (R)-7-(2-Morpholinopyrimidin-5-yl)-4-phenyl-3,4-dihydro-1H-benzo[4,5]imidazo[2,1-c][1,4]oxazine]: the IC50 lay within 10 to 100 µM.

In the case of `O=C(O)C1CCN(c2ncc(-c3ccc4nc5n(c4c3)C(c3ccccc3)COC5)cn2)CC1` (stereo not shown) [Example 22, 1-(5-(4-Phenyl-3,4-dihydro-1H-benzo[4,5]imidazo[2,1-c][1,4]oxazin-7-yl)pyrimidin-2-yl)piperidine-4-carboxylic acid], the 50% inhibitory concentration (IC50) is 1 to 10 µM.

Take `COc1ccccc1C1CCCc2nc3ccc(-c4ccc(C(=O)O)s4)cn3c21` (stereo not shown) [Example 23, 5-(9-(2-Methoxyphenyl)-6,7,8,9-tetrahydrobenzo[4,5]imidazo[1,2-a]pyridin-2-yl)thiophene-2-carboxylic acid]: the IC50 fell in the range of 1 to 10 µM.

On to `O=C1NC[C@@H]2CN(c3ncc(-c4ccc5nc6n(c5c4)[C@@H](c4ccccc4)CC6)cn3)CCN12` [Example 24, (R)-7-(5-((R)-1-Phenyl-2,3-dihydro-1H-benzo[d]pyrrolo[1,2-a]imidazol-7-yl)pyrimidin-2-yl)hexahydroimidazo[1,5-a]pyrazin-3(2H)-one], for which the IC50 was < 1 µM.

As for `O=C1NC[C@H]2CN(c3ncc(-c4ccc5nc6n(c5c4)[C@@H](c4ccccc4)CC6)cn3)CCN12` [Example 25, (S)-7-(5-((R)-1-Phenyl-2,3-dihydro-1H-benzo[d]pyrrolo[1,2-a]imidazol-7-yl)pyrimidin-2-yl)hexahydroimidazo[1,5-a]pyrazin-3(2H)-one], the IC50 was < 1 µM.

`O=C1NC[C@@H]2CN(c3ncc(-c4ccc5nc6n(c5c4)[C@@H](c4ccccc4)COC6)cn3)CCN12` [Example 26, (R)-7-(5-((S)-4-Phenyl-3,4-dihydro-1H-benzo[4,5]imidazo[2,1-c][1,4]oxazin-7-yl)pyrimidin-2-yl)hexahydroimidazo[1,5-a]pyrazin-3(2H)-one]: the IC50 was < 1 µM.

Consider `O=C1NC[C@H]2CN(c3ncc(-c4ccc5nc6n(c5c4)[C@@H](c4ccccc4)COC6)cn3)CCN12` [Example 27, (S)-7-(5-((S)-4-Phenyl-3,4-dihydro-1H-benzo[4,5]imidazo[2,1-c][1,4]oxazin-7-yl)pyrimidin-2-yl)hexahydroimidazo[1,5-a]pyrazin-3(2)-one], for which the IC50 is < 1 µM.

In the case of `CC(C)(O)c1ncc(-c2ccc3nc4n(c3c2)C(c2ccccn2)CC4)cn1` (stereo not shown) [Example 28, 2-(5-(1-(Pyridin-2-yl)-2,3-dihydro-1H-benzo[d]pyrrolo[1,2-a]imidazol-7-yl)pyrimidin-2-yl)propan-2-ol], the IC50 fell in the range of 1 to 10 µM.

In the case of `CC(C)(O)c1ncc(-c2ccc3nc4n(c3n2)C(c2ccccn2)CC4)cn1` (stereo not shown) [Example 29, 2-(5-(8-(Pyridin-2-yl)-7,8-dihydro-6H-pyrrolo[2′,1′:2,3]imidazo[4,5-b]pyridin-2-yl)pyrimidin-2-yl)propan-2-ol], the IC50 lay within 1 to 10 µM.

Consider `O=C1NC[C@H]2CN(c3ncc(-c4ccc5nc6n(c5n4)[C@@H](c4ccccc4)CC6)cn3)CCN12` [Example 31, (S)-7-(5-((R)-8-Phenyl-7,8-dihydro-6H-pyrrolo[2′,1′:2,3]imidazo[4,5-b]pyridin-2-yl)pyrimidin-2-yl)hexahydroimidazo[1,5-a]pyrazin-3(2H)-one], for which the IC50 is < 1 µM.

As to `COc1ccccc1C1COCc2nc3ccc(-c4cnc(C(C)(C)O)nc4)cn3c21` (stereo not shown) [Example 32, 2-(5-(4-(2-Methoxyphenyl)-3,4-dihydro-1H-pyrano[3′,4′:4,5]imidazo[1,2-a]pyridin-7-yl)pyrimidin-2-yl)propan-2-ol], the IC50 was < 1 µM.

On to `OC1CCN(c2ncc(-c3ccc4nc5c(n4n3)C(c3ccccc3)CC5)cn2)CC1` (stereo not shown) [Example 33, 1-(5-(8-Phenyl-7,8-dihydro-6H-cyclopenta[4,5]imidazo[1,2-b]pyridazin-2-yl)pyrimidin-2-yl)piperidin-4-ol], for which the IC50 was < 1 µM.

Take `COc1ccccc1C1CCc2nc3ccc(-c4cnc(N5CCN6C(=O)NCC6C5)nc4)nn3c21` (stereo not shown) [Example 34, 7-(5-(8-(2-Methoxyphenyl)-7,8-dihydro-6H-cyclopenta[4,5]imidazo[1,2-b]pyridazin-2-yl)pyrimidin-2-yl)hexahydroimidazo[1,5-a]pyrazine-3(2H)-one]: the IC50 was < 1 µM.

As to `O=C1NCC2CN(c3ncc(-c4ccc5nc6n(c5c4)C(c4ccccc4C(F)(F)F)COC6)cn3)CCN12` (stereo not shown) [Example 35, 7-(5-(4-(2-(Trifluoromethyl)phenyl)-3,4-dihydro-H-benzo[4,5]imidazo[2,1-c][1,4]oxazin-7-yl)pyrimidin-2-yl)hexahydroimidazo[1,5-a]pyrazin-3(2H)-one], the half-inhibitory concentration (IC50) was < 1 µM.

For the molecule `NC1CC2(CCN(c3ncc(-c4ccc5nc6n(c5c4)[C@@H](c4ccccc4)COC6)cn3)CC2)C1` [Example 36, (S)-7-(5-(4-Phenyl-3,4-dihydro-1H-benzo[4,5]imidazo[2,1-c][1,4]oxazin-7-yl)pyrimidin-2-yl)-7-azaspiro[3.5]nonan-2-amine], the IC50 is < 1 µM.

Take `c1ccc([C@H]2COCc3nc4ccc(-c5cnc(N6[C@H]7CCC[C@@H]6CNCC7)nc5)cc4n32)cc1` [Example 37]: the IC50 is < 1 µM.

Consider `CC(C)(O)c1ncc(-c2ccc3nc4n(c3c2)C(C2CCOCC2)CC4)cn1` (stereo not shown) [Example 38, 2-(5-(1-(Tetrahydro-2H-pyran-4-yl)-2,3-dihydro-1H-benzo[d]pyrrolo[1,2-a]imidazol-7-yl)pyrimidin-2-yl)propan-2-ol], for which the IC50 was in the range of 10 to 100 µM.

On to `CC(C)(O)c1ncc(-c2ccc3nc4n(c3n2)C(C)(c2ccccc2)CC4)cn1` (stereo not shown) [Example 39, 2-(5-(8-Methyl-8-phenyl-7,8-dihydro-6H-pyrrolo[2′,1′:2,3]imidazo[4,5-b]pyridin-2-yl)pyrimidin-2-yl)propan-2-ol], for which the half-inhibitory concentration (IC50) was < 1 µM.

Consider `OC[C@H]1CCCN1c1ncc(-c2ccc3nc4n(c3n2)[C@@H](c2ccccc2)CC4)cn1` [Example 40, ((R)-1-(5-((R)-8-Phenyl-7,8-dihydro-6H-pyrrolo[2′,1′:2,3]imidazo[4,5-b]pyridin-2-yl)pyrimidin-2-yl)pyrrolidin-2-yl)methanol], for which the IC50 fell in the range of 1 to 10 µM.

Turning to `CC(=O)N1CCN(c2ncc(-c3ccc4nc5n(c4n3)[C@@H](c3ccccc3)CC5)cn2)C[C@H]1C` [Example 41, 1-((R)-2-Methyl-4-(5-((R)-8-phenyl-7,8-dihydro-6H-pyrrolo[2′,1′:2,3]imidazo[4,5-b]pyridin-2-yl)pyrimidin-2-yl)piperazin-1-yl)ethanone], the half-maximal inhibitory concentration (IC50) was < 1 µM.

With `CC(=O)N1CCN(c2ncc(-c3ccc4nc5n(c4n3)[C@@H](c3ccccc3)CC5)cn2)C[C@@H]1C` [Example 42, 1-((S)-2-Methyl-4-(5-((R)-8-phenyl-7,8-dihydro-6H-pyrrolo[2′,1′:2,3]imidazo[4,5-b]pyridin-2-yl)pyrimidin-2-yl)piperazin-1-yl)ethanone], the IC50 is < 1 µM.

Take `C[C@@H]1CN(c2ncc(-c3ccc4nc5n(c4n3)[C@@H](c3ccccc3)CC5)cn2)CCN1C(=O)CO` [Example 43, 2-Hydroxy-1-((R)-2-methyl-4-(5-((R)-8-phenyl-7,8-dihydro-6H-pyrrolo[2′,1′:2,3]imidazo[4,5-b]pyridin-2-yl)pyrimidin-2-yl)piperazin-1-yl)ethanone]: the IC50 is < 1 µM.

For `CC(=O)N1CCN(c2ncc(-c3ccc4nc5n(c4n3)[C@@H](c3cccc(CO)c3)CC5)cn2)C[C@H]1C` [Example 44, 1-((R)-4-(5-((R)-8-(3-(Hydroxymethyl)phenyl)-7,8-dihydro-6H-pyrrolo[2′,1′:2,3]imidazo[4,5-b]pyridin-2-yl)pyrimidin-2-yl)-2-methylpiperazin-1-yl)ethanone], the concentration for half-maximal inhibition (IC50) is < 1 µM.

As to `CC(C)[C@H](N)C(=O)OC1CCN(c2ncc(-c3ccc4nc5n(c4n3)[C@@H](c3ccccc3)CC5)cn2)CC1` [Example 46, (S)-1-(5-((R)-8-Phenyl-7,8-dihydro-6H-pyrrolo[2′,1′:2,3]imidazo[4,5-b]pyridin-2-yl)pyrimidin-2-yl)piperidin-4-yl 2-amino-3-methylbutanoate], the IC50 is 1 to 10 µM.

As to `O=P(O)(O)OC1CCN(c2ncc(-c3ccc4nc5n(c4n3)[C@@H](c3ccccc3)CC5)cn2)CC1` [Example 46.1, (R)-1-(5-(8-Phenyl-7,8-dihydro-6H-pyrrolo[2′,1′:2,3]imidazo[4,5-b]pyridin-2-yl)pyrimidin-2-yl)piperidin-4-yl dihydrogen phosphate hydrochloride], the IC50 fell in the range of 1 to 10 µM.

Turning to `c1ccc([C@H]2CCc3nc4ccc(-c5ccnc(OC6CCOCC6)c5)nc4n32)cc1` [Example 47, (R)-8-Phenyl-2-(2-((tetrahydro-2H-pyran-4-yl)oxy)pyridin-4-yl)-7,8-dihydro-6H-pyrrolo[2′,1′:2,3]imidazo[4,5-b]pyridine], the IC50 is < 1 µM.

Consider `c1ccc([C@H]2CCc3nc4ccc(-c5ccnc(OC6CCCOC6)c5)nc4n32)cc1` (stereo partly drawn) [Example 48, (8R)-8-Phenyl-2-(2-((tetrahydro-2H-pyran-3-yl)oxy)pyridin-4-yl)-7,8-dihydro-6H-pyrrolo[2′,1′:2,3]imidazo[4,5-b]pyridine], for which the half-maximal inhibitory concentration (IC50) was 1 to 10 µM.

For the molecule `c1ccc([C@H]2CCc3nc4ccc(-c5ccnc(O[C@H]6CCNC6)c5)nc4n32)cc1` [Example 49], the IC50 was 1 to 10 µM.

For the molecule `OC1CCN(c2ncc(-c3ccc4nc5n(c4n3)C3(COC5)COc4ccccc43)cn2)CC1` (stereo not shown) [Example 50, 1-(5-(6′,8′-Dihydro-2H-spiro[benzofuran-3,9′-pyrido[3′,2′:4,5]imidazo[2,1-c][1,4]oxazin]-2′-yl)pyrimidin-2-yl)piperidin-4-ol], the IC50 was < 1 µM.

As to `c1ccc2c(c1)OCC21COCc2nc3ccc(-c4cnc(N5CCOCC5)nc4)nc3n21` (stereo not shown) [Example 51, 2′-(2-Morpholinopyrimidin-5-yl)-6′,8′-dihydro-2H-spiro[benzofuran-3,9′-pyrido[3′,2′:4,5]imidazo[2,1-c][1,4]oxazine]], the IC50 was < 1 µM.

As for `OC1CCN(c2ncc(-c3ccc4nc5n(c4n3)C3(CCc4ccccc43)COC5)cn2)CC1` (stereo not shown) [Example 52], the IC50 was < 1 µM.
